In PubChem BioAssay (NCI):
“And” between values parts separate entries of the source, which are not always exact repeats. Equal entries are not always repeated.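 Exposure lasted 48 hours, with cells grown in 96-well plates and compounds tested at five concentrations. At the GI50, growth is halved. TGI marks complete inhibition of growth.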

Key:
Assay in all cases: inhibition of tumour cell growth, NCI panel, 48 h
ACHN renal = test system: ACHN renal
SN12C renal = test system: SN12C renal
OVCAR-8 ovarian = test system: OVCAR-8 ovarian
IGROV1 ovarian = test system: IGROV1 ovarian
UO-31 renal = test system: UO-31 renal
SF-295 CNS = test system: SF-295 CNS
HT29 colon = test system: HT29 colon
EKVX NSCLC = test system: EKVX NSCLC
OVCAR-3 ovarian = test system: OVCAR-3 ovarian
NCI-H23 lung = test system: NCI-H23 lung
PC-3 prostate = test system: PC-3 prostate
COLO 205 colon = test system: COLO 205 colon
NCI-H460 lung = test system: NCI-H460 lung
MDA-MB-468 breast = test system: MDA-MB-468 breast
LOX IMVI melanoma = test system: LOX IMVI melanoma
KM12 colon = test system: KM12 colon
A549 NSCLC = test system: A549 NSCLC
MOLT-4 leukemia = test system: MOLT-4 leukemia
SK-MEL-5 melanoma = test system: SK-MEL-5 melanoma
CAKI-1 renal = test system: CAKI-1 renal
SNB-19 CNS = test system: SNB-19 CNS
T-47D breast = test system: T-47D breast
SF-539 CNS = test system: SF-539 CNS
M14 melanoma = test system: M14 melanoma
UACC-257 melanoma = test system: UACC-257 melanoma
U251 CNS = test system: U251 CNS
MALME-3M melanoma = test system: MALME-3M melanoma
SK-OV-3 ovarian = test system: SK-OV-3 ovarian
RXF 393 renal = test system: RXF 393 renal
OVCAR-4 ovarian = test system: OVCAR-4 ovarian
OVCAR-5 ovarian = test system: OVCAR-5 ovarian
HCT-15 colon = test system: HCT-15 colon
HOP-62 NSCLC = test system: HOP-62 NSCLC
NCI-H226 lung = test system: NCI-H226 lung
NCI-H522 lung = test system: NCI-H522 lung
MDA-MB-231 breast = test system: MDA-MB-231 breast
DU-145 prostate = test system: DU-145 prostate
A498 renal = test system: A498 renal
MCF7 breast = test system: MCF7 breast
K-562 leukemia = test system: K-562 leukemia
SR leukemia = test system: SR leukemia
SK-MEL-28 melanoma = test system: SK-MEL-28 melanoma
UACC-62 melanoma = test system: UACC-62 melanoma
HCC-2998 colon = test system: HCC-2998 colon
HL-60(TB) leukemia = test system: HL-60(TB) leukemia
SW-620 colon = test system: SW-620 colon
HS 578T breast = test system: HS 578T breast
SNB-75 CNS = test system: SNB-75 CNS
SF-268 CNS = test system: SF-268 CNS
MDA-MB-435 = test system: MDA-MB-435
SK-MEL-2 melanoma = test system: SK-MEL-2 melanoma
TK-10 renal = test system: TK-10 renal

`O=c1oc2ccc(-c3ccc(F)cc3F)cc2c(=O)n1-c1ccc(Cl)c(C(F)(F)F)c1` was tested, and the GI50 (ACHN renal) was 3.24 µM, the TGI (ACHN renal) was 12.3 µM and the GI50 (SN12C renal) was 2.89 µM. For the same compound, the TGI (SN12C renal) was 9.46 µM, the GI50 (OVCAR-8 ovarian) was 4.38 µM and the TGI (OVCAR-8 ovarian) was 17.9 µM. It also gave a GI50 (IGROV1 ovarian) of 4.42 µM, a TGI (IGROV1 ovarian) of 15.8 µM and a GI50 (UO-31 renal) of 3.45 µM. It also gave a TGI (UO-31 renal) of 14 µM, a GI50 (SF-295 CNS) of 7.02 µM and a TGI (SF-295 CNS) of 20.5 µM. For the same compound, the GI50 (HT29 colon) was 16.7 µM, the TGI (HT29 colon) was 31.4 µM and the GI50 (EKVX NSCLC) was 2.85 µM. The TGI (EKVX NSCLC) was 12.2 µM, the GI50 (OVCAR-3 ovarian) was 3.22 µM and the TGI (OVCAR-3 ovarian) was 11 µM. The GI50 (NCI-H23 lung) was 2.47 µM, the TGI (NCI-H23 lung) was 8.59 µM and the GI50 (PC-3 prostate) was 2.04 µM. For the same compound, the TGI (PC-3 prostate) was 10.9 µM, the GI50 (COLO 205 colon) was 16.5 µM and the TGI (COLO 205 colon) was 30.9 µM. The GI50 (NCI-H460 lung) was 3.27 µM, the TGI (NCI-H460 lung) was 11.2 µM and the GI50 (MDA-MB-468 breast) was 2.4 µM and 2.82 µM. For the same compound, the TGI (MDA-MB-468 breast) was 6.08 µM and 7.81 µM, the GI50 (LOX IMVI melanoma) was 3.9 µM and the TGI (LOX IMVI melanoma) was 13.9 µM. It also gave a GI50 (KM12 colon) of 3.86 µM, a TGI (KM12 colon) of 14.8 µM and a GI50 (A549 NSCLC) of 3.53 µM. The TGI (A549 NSCLC) was 13.1 µM, the GI50 (MOLT-4 leukemia) was 2.85 µM and the TGI (MOLT-4 leukemia) was 15 µM. It also gave a GI50 (SK-MEL-5 melanoma) of 1.96 µM, a TGI (SK-MEL-5 melanoma) of 4.04 µM and a GI50 (CAKI-1 renal) of 2.29 µM. It also gave a TGI (CAKI-1 renal) of 8.98 µM, a GI50 (SNB-19 CNS) of 3.28 µM and a TGI (SNB-19 CNS) of 13.4 µM. It also gave a GI50 (T-47D breast) of 2.42 µM, a TGI (T-47D breast) of 6.76 µM and a GI50 (SF-539 CNS) of 3.9 µM. For the same compound, the TGI (SF-539 CNS) was 14.7 µM, the GI50 (M14 melanoma) was 0.0652 µM and the TGI (M14 melanoma) was 3.29 µM. It also gave a GI50 (UACC-257 melanoma) of 3.41 µM, a TGI (UACC-257 melanoma) of 14.4 µM and a GI50 (U251 CNS) of 3.23 µM. It also gave a TGI (U251 CNS) of 11.1 µM, a GI50 (MALME-3M melanoma) of 2.62 µM and a TGI (MALME-3M melanoma) of 7.28 µM. For the same compound, the GI50 (SK-OV-3 ovarian) was 2.3 µM, the TGI (SK-OV-3 ovarian) was 6.3 µM and the GI50 (RXF 393 renal) was 2.21 µM. For the same compound, the TGI (RXF 393 renal) was 6.51 µM, the GI50 (OVCAR-4 ovarian) was 4.19 µM and the TGI (OVCAR-4 ovarian) was 16.7 µM. The GI50 (OVCAR-5 ovarian) was 5.98 µM, the TGI (OVCAR-5 ovarian) was 21.4 µM and the GI50 (HCT-15 colon) was 3.19 µM. The TGI (HCT-15 colon) was 12.4 µM, the GI50 (HOP-62 NSCLC) was 4.18 µM and the TGI (HOP-62 NSCLC) was 14.6 µM. It also gave a GI50 (NCI-H226 lung) of 2.11 µM, a TGI (NCI-H226 lung) of 12.5 µM and a GI50 (NCI-H522 lung) of 2.52 µM. It also gave a TGI (NCI-H522 lung) of 7.84 µM, a GI50 (MDA-MB-231 breast) of 2.35 µM and a TGI (MDA-MB-231 breast) of 6.97 µM. The GI50 (DU-145 prostate) was 4.03 µM, the TGI (DU-145 prostate) was 14.3 µM and the GI50 (A498 renal) was 2.95 µM. The TGI (A498 renal) was 8.94 µM, the GI50 (MCF7 breast) was 2.7 µM and the TGI (MCF7 breast) was 10.4 µM. The GI50 (K-562 leukemia) was 3.18 µM, the TGI (K-562 leukemia) was > 100 µM and the GI50 (SR leukemia) was 1.79 µM. The TGI (SR leukemia) was 5.54 µM, the GI50 (SK-MEL-28 melanoma) was 4.3 µM and the TGI (SK-MEL-28 melanoma) was 15.9 µM. For the same compound, the GI50 (UACC-62 melanoma) was 2.89 µM, the TGI (UACC-62 melanoma) was 10.4 µM and the GI50 (HCC-2998 colon) was 3.58 µM. For the same compound, the TGI (HCC-2998 colon) was 12.8 µM, the GI50 (HL-60(TB) leukemia) was 4.66 µM and the TGI (HL-60(TB) leukemia) was 47.2 µM. For the same compound, the GI50 (SW-620 colon) was 3.93 µM, the TGI (SW-620 colon) was 14.9 µM and the GI50 (HS 578T breast) was 2.6 µM. It also gave a TGI (HS 578T breast) of 8.26 µM, a GI50 (SNB-75 CNS) of 2.23 µM and a TGI (SNB-75 CNS) of 13.4 µM. It also gave a GI50 (SF-268 CNS) of 3.39 µM, a TGI (SF-268 CNS) of 11.9 µM and a GI50 (MDA-MB-435) of 3.49 µM. The TGI (MDA-MB-435) was 12.6 µM, the GI50 (SK-MEL-2 melanoma) was 2 µM and the TGI (SK-MEL-2 melanoma) was 5.02 µM. For the same compound, the GI50 (TK-10 renal) was 3.98 µM and the TGI (TK-10 renal) was 11.7 µM.
